Assays:
[1] = test system: BRCA1-mutated MDA-MB-436 cells; assay: Anti-proliferation experiment on MDA-MB-436 CTG cells; format: cell-based, human; settings: 7 days incubation, CellTiter-Glo
Protocol: Experimental Example 2: Anti-Proliferation Experiment on MDA-MB-436 CTG Cells
Experimental materials: test compounds; RPMI-1640 medium; fetal bovine serum; penicillin/streptomycin antibiotic; MDA-MB-436 cell line; Envision multi-marker analyzer (PerkinElmer).
MDA-MB-436 cells were seeded in a white 96-well plate by adding 80 μL of cell suspension (containing 3000 MDA-MB-436 cells) to each well. The cell plate was incubated in a CO2 incubator overnight.
Test compounds were serially 5-fold diluted to the 8th concentration with a multichannel pipette, i.e. from 2 mM to 26 nM, and a duplicate well experiment was performed. 78 μL of medium was added to a intermediate plate, 2 μL of each of serially diluted compounds was transferred to corresponding wells of the intermediate plate, and after mixing, the mixture was transferred to the cell plate at 20 μL per well. The cell plate was incubated in a CO2 incubator for 7 days. Another cell plate was provided for reading signal values on the day of compound addition and these signal values were used as Max values in data analysis. Promega CellTiter-Glo was added to this cell plate at 25 μL per well and the luminescence signals were stabilized by incubation for 10 min at room temperature. Readings were taken using a PerkinElmer Envision multi-marker analyzer.
Promega CellTiter-Glo was added to the cell plate at 25 μL per well and the luminescence signals were stabilized by incubation for 10 min at room temperature. Readings were taken using a PerkinElmer Envision multi-marker analyzer.
2. Data analysis: the original data was converted to inhibition using the equation (sample−Min)/(Max−Min)×100%, and the IC50 value was then curve fitted using four parameters (obtained from the “log(inhibitor) vs. response-variable slope” model in GraphPad Prism). Table 2 provides the inhibitory activity of the compounds disclosed herein against MDA-MB-436 cell proliferation.

PARP1 = biological target: T1, PARP1 (Homo sapiens, UniProt P09874); assay: PARP-1 enzymatic experiment (HT Universal Chemiluminescent PARP Assay kit); format: biochemical; settings: chemiluminescence
T1 construct: purchased TREVIGEN
T1 sequence (P09874 whole entry): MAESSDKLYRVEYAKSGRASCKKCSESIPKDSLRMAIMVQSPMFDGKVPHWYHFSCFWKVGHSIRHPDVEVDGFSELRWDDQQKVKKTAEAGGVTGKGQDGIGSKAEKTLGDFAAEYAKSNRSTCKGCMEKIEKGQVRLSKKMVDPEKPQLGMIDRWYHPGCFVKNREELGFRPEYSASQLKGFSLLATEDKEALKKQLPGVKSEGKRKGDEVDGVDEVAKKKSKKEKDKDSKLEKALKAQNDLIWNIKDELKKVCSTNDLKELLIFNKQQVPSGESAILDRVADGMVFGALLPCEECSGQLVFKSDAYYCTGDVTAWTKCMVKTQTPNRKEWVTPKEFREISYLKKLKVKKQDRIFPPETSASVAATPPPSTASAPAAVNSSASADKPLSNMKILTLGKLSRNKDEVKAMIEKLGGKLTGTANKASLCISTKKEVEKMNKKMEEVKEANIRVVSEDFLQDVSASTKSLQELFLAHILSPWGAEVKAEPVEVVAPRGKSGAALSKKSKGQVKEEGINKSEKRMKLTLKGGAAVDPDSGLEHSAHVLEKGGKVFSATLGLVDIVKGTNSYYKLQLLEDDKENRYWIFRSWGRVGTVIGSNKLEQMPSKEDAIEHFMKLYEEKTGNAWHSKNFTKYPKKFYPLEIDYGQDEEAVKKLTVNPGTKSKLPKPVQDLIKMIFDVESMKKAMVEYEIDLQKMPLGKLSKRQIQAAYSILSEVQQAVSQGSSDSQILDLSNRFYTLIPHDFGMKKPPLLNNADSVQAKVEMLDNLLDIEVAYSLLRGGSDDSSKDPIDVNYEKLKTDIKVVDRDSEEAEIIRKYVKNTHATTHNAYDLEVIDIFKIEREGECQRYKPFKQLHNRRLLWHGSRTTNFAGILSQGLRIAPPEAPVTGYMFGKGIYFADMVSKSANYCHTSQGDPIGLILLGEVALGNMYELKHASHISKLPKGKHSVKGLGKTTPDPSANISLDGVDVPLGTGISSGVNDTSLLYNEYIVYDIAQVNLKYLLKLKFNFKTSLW
Protocol: Experimental Example 1: PARP-1 Enzymatic Experiment
Experimental materials: test compounds; HT Universal Chemiluminescent PARP Assay kit (purchased from TREVIGEN); PBS (purchased from Wisent); Triton X-100 (purchased from Macklin); Envision multi-marker analyzer (PerkinElmer).
(I) Preparation of Reagents:
• 1. Washing solution: Triton X-100 was added to 1-fold PBS, and the final concentration of Triton X-100 was 0.1%. • 2. 1-fold PARP buffer: the 20-fold PARP buffer in the kit was subjected to 20-fold dilution with water to prepare a 1-fold PARP buffer. This buffer was used to prepare the compound, enzyme solution and substrate solution. • 3. 1-fold Strep-Diluent solution: the 10-fold Strep-diluent in the kit was subjected to 10-fold dilution with water to prepare a 1-fold Strep-diluent solution.
(II) Preparation of Test Compounds:
Test compounds were serially 5-fold diluted to the 8th concentration with a multichannel pipette, i.e. from 200 μM to 2.56 nM, with the DMSO concentration being 100%. 2 μL of each of the inhibitors at various concentration gradients was added to a compound intermediate plate, and 38 μL of the 1-fold PARP buffer was then added; the two were mixed well for use, and the DMSO concentration was 5%.
(III) Experimental Method:
• a) The 1-fold PARP buffer was added to a test plate at 50 μL per well and incubated at 25° C. for 30 min. • b) After the incubation was completed, the liquid in the test plate was discarded, and each of the compounds at various concentration gradients was pipetted from the compound intermediate plate and added into the test plate at 10 μL per well. A duplicate-well experiment was performed. • c) The test plate was added with the enzyme solution (0.5 IU) at 15 μL per well. The compound and enzyme were incubated together at 25° C. for 10 min. • d) After the incubation was completed, 25 μL of the 1-fold PARP Cocktail (comprising 2.5 μL of 10-fold PARP Cocktail, 2.5 μL of 10-fold Activated DNA and 20 μL of 1-fold PARP buffer) was added to each well of the test plate. The test plate was incubated at 25° C. for 1 h. The final concentration of the compound was 2 μM to 0.0256 nM, and the DMSO concentration was […]. • e) After the incubation was completed, the test plate was washed twice with 200 μL of washing solution per well and then washed twice with 200 μL of PBS per well. • f) Strep-HRP in the kit was subjected to 500-fold dilution with the 1-fold Strep-Diluent solution, added to the test plate at 50 μL per well, and then incubated at 25° C. for 1 h. • g) After the incubation was completed, the test plate was washed twice with 200 μL of washing solution per well and then washed twice with 200 μL of PBS per well.
PeroxyGlow A and B in the kit were mixed at ratio of 1:1, and the mixed solution was added to the test plate at 100 μL per well. Chemiluminescence was immediately read using a PerkinElmer Envision multi-marker analyzer with an integration time of 0.5 s.
Data analysis: the original data was converted to inhibition using the equation (sample−Min)/(Max−Min)×[…], and the IC50 value was then curve filled using four parameters (obtained from the “log(inhibitor) vs. response-variable slope” model in GraphPad Prism).

[2] = Homo sapiens, MDA-MB-436, 168 h

Row | IC50 [1] [nM] | IC50 (PARP1) [nM] | IC50 [1, 2] [nM] | SMILES
1 | 8.4 | 3.4 |  | CC1(c2ccc(-c3[nH]c4cc(F)cc5c4c3CONC5=O)cc2F)CCCN1 (single isomer, unassigned) [Example 26_A]
2 |  | 2.8 | 16.9 | CC1(c2ccc(-c3[nH]c4cccc5c4c3CONC5=O)cc2)CCCN1 (stereo not shown) [Example 6_A]
3 | 9.6 | 2 |  | O=C1NOCc2c(-c3ccc(C4CCCN4)cc3)[nH]c3cc(F)cc1c23 (single isomer, unassigned) [Example 24_A]
4 |  | 3.6 | 70.2 | O=C1NOCc2c(-c3ccc(C4CCCN4)c(F)c3)[nH]c3cccc1c23 (stereo not shown) [Example 11_A]

Row | SMILES | IC50 [1] [nM] | IC50 (PARP1) [nM] | IC50 [1, 2] [nM]
5 | CC1(c2ccc(-c3[nH]c4cc(F)cc5c4c3CONC5=O)cc2)CCCN1 (stereo not shown) [Example 25_A] |  | 2.3 | 12.3
